Assay results published in patent US20230104477A1, “USE OF DEHYDROASCORBIC ACID AGAINST NEMATODE INFECTION IN PLANTS” (Universiteit Gent, priority 2019, published 2023).

Assays:
Turnip mosaic virus = conditions: applied to Brassica rapa plants (Fujiwara et al., 2013); cited from earlier work
Heterodera schachtii = assay: Sugar beet tolerance to beet cyst nematode infection after foliar spray; type: in vivo; conditions: 250 H. schachtii per plant
Method: (§1) Sugar beet—seeds of cv. Amarok were germinated on moist tissue for 4-5 days at 25° C. For longer experiments seedlings were transplanted to polyvinyl-chloride (PVC) tubes containing fine soil particles. All experiments were conducted in a plant growth room at 25° C., with a 16/8 h day/night regime. The plants were fertilized by supplying Hoagland solution as a source of nutrients 3 times a week.
BNC cysts were obtained from Iran and were maintained on sugar beet (cv. Amarok) plants. Cysts were obtained from stock cultures, by washing the infected soil and letting the cysts to float in water. Full cysts with eggs were hand-picked and allowed to dry before setting up for hatching. For second-stage juveniles (J2) to hatch, cysts were placed in 3 mM of […] and transferred to an incubator/shaker at a temperature of 25.5° C. at 70 rpm for 4 days (Kammerhofer et al., 2015). J2 were re-suspended in water and counted under a stereomicroscope. Around 250-300 J2 nematodes were inoculated per plant. One day before and after inoculation, plants were not supplied with any nutrients or water. To investigate the plant tolerance to BCN infection root length, shoot height, fresh root weight as well as the number of cysts were measured at different time points after spraying and/or inoculation. For all experiments, 8 individual plants were used per treatment.
(§2) Reduced Ascorbic acid (AA, 20 mM), dehydroascorbic acid (DHA, 20 mM), ascorbate oxidase (AO, 20 U/ml), methyl jasmonate (MeJA, 100 μM), aminooxyacetic acid (AoA, 12.5 mM), diethyldithiocarbamic acid (DIECA, 100 μM) and ethephon (100 μM) were purchased from Sigma and dissolved in water (except MeJA that was first dissolved in a drop of ETOH) to attain the indicated concentration.
(§3) For foliar application, all chemicals were dissolved in water and 0.02% (v/v) of Tween20 as a surfactant was added prior to spraying on aerial portions of the rice plants. Control plants were sprayed with distilled water containing 0.02% Tween20. Eight plants per treatment were sprayed until run-off with 6.5 mL of solution (at 24 h prior to nematode inoculation, in cases where infected plants were used). The substrate was covered to avoid direct contact with the roots and/or nematodes.

sugar beet plants = assay: Root and shoot growth in uninfected sugar beet plants after foliar spray; type: in vivo, Beta vulgaris cv. Amarok
Method: as §1, §2, §3

rice seedlings = assay: Evaluation of seedling growth after drenching rice seedlings; type: in vivo, Oryza sativa cv. Nipponbare
Method: Rice—Seeds of wild-type rice Oryza sativa cv. Nipponbare were obtained from USDA (GSOR-100). Seeds were germinated on wet filter paper for 4-5 days at 30° C. and seedlings were then transferred to SAP-substrate (Sand mixed with Absorbent Polymer AquaPerla®, DCM, Belgium) and further grown at 28° C., under a light regime of (day/night) 12/12. Hoagland solution was given as a source of nutrients 3 times a week.
as §2
3-days old rice seedlings were drenched with 1 mL of AA (20 mM), AO (20 U/mL), DHA (20 mM) or water (H2O) as a negative control. Rice root length and dry root weight as well as the number of embryonic crown roots (ECR) were measured 5 days after drenching.

[1] = three-weeks old sugar beet, foliar spray (AA 20 mM, AO 20 U/mL, DHA 20 mM), 4 DAS (3 dai)
[2] = two-week old sugar beet, foliar spray, seven days later, effect not statistically significant
[3] = 3-days old rice seedlings drenched with 1 mL (AA 20 mM, DHA 20 mM, AO 20 U/ml), 5 days after drenching, vs water control

O=C1O[C@H]([C@@H](O)CO)C(=O)C1=O [DHA, (5R)-5-[(1S)-1,2-dihydroxyethyl]furan-2,3,4(5H)-trione]
antiviral effect (Turnip mosaic virus): antiviral effect | root system development (Heterodera schachtii; foliar spray DHA 20 mM, 43 DAS, vs control): better developed root system | number of cysts (Heterodera schachtii; foliar spray DHA 20 mM, 43 DAS, vs untreated plants): significantly lower | fresh root weight (Heterodera schachtii; foliar spray, 43 DAS (42 days after inoculation), vs control): significantly more fresh root weight | root length (Heterodera schachtii; [1]): significantly increased | root weight (Heterodera schachtii; [1]): significantly increased | shoot weight (Heterodera schachtii; [1]): significantly increased | shoot height (Heterodera schachtii; three-weeks old sugar beet, foliar spray (AA 20 mM, AO 20 U/mL, DHA 20 mM), 4 DAS (3 dai), DHA effect not statistically significant): positively influenced | general appearance of plants (sugar beet plants; sugar beet, foliar spray DHA 20 mM, throughout the experiment): looked more vigorous | root length (sugar beet plants; two-week old sugar beet, foliar spray (DHA 20 mM, AO 20 U/mL), seven days later, vs water control): significantly longer roots | fresh root weight (sugar beet plants; [2]): positively affected | shoot length (sugar beet plants; [2]): positively affected | dry root weight (rice seedlings; [3]): significantly higher | number of embryonic crown roots (ECR) (rice seedlings; [3]): significantly higher | root length (rice seedlings; [3]): significantly higher | general appearance of seedlings (rice seedlings; rice seedlings drenched with DHA 20 mM): looked more vigorous
